Measurements published in article PMC4298654, “In vivo formation of N-acyl-fumonisin B1” (Mycotoxin Research, 2014).

Assay: In vivo formation of NAFB1 and NAHFB1 in rat kidney and liver (HPLC-ESI-MS/MS)
Design: N-acyl-derivative in tissue sample, analysis a / N-acyl-derivative in tissue sample, analysis b / N-acyl-derivative in tissue sample, mean: unit not given here
Details: 5 days
From the text: The study protocol was approved by the Institutional Animal Care and Use Committee, Richard B. Russell Agricultural Research Center, Athens, GA. Male Sprague–Dawley rats (Harlan Industries, Indianapolis, IN, USA), 7 weeks of age at receipt, were individually housed in stainless steel, wire mesh cages in an environmentally controlled room having a 12-h light/dark cycle. Food (2019 Global Rodent Diet, Teklad, Madison, WI, USA) and fresh tap water were provided ad libitum. After a 1 week acclimation period, the animals were randomly assigned to five groups (n = 2/group) having mean weights of 215 to 216 g (weight range of all animals, 211 to 220 g). For five consecutive days, they were observed, weighed, and given an intraperitoneal injection (ip) of 0 (vehicle), 0.5, 1.0, or 2.0 mg/kg body weight FB1 (provided by R. Eppley, US FDA), 1.0 mg/kg body weight HFB1 (positive control) (Voss et al. [2009]), or vehicle (0.9 % physiological saline). These doses corresponded to 0.69, 1.38, and 2.77 μmol FB1/kg body weight and 2.47 μmol/kg body weight HFB1 per day. In order to compare the effects of FB1 and HFB1, dosages will be expressed as molar concentrations and, on this basis, the high dose of FB1 is roughly equivalent to that of the positive control dose of HFB1. Dosing solutions were sterile filtered and administered at a volume rate of 10 ml/kg body weight. The animals were fasted overnight prior to administration of the final dose. The rats were euthanized (CO2 inhalation and exsanguination) 60 to 90 min following the final dose administration and examined by necropsy. The kidney and liver specimens were fixed in 10 % neutral buffered formalin, processed, and microscopically evaluated without knowledge of the animal’s identity or treatment group. Three representative liver and kidney specimens (100 mg each) were also collected, immediately frozen, and stored (−80 °C) until processed, at which time the tissues were thawed and homogenized in distilled/deionized water (1 ml water/100 mg tissue). The homogenates were lyophilized before they were shipped by overnight courier for the analysis of fumonisin metabolites and sphingolipids.
Lyophilized liver and kidney tissues (100 mg wet weight equivalents) were processed for the quantification of FB1, HFB1, NAFB1, NAHFB1, and sphingolipids. Preparation of the tissue samples was performed according to a previously published method (Harrer et al. [2013]). For the quantification of FB1 and HFB1, a d6-labeled derivative of FB1 (FB1-d6) was used as the internal standard. Synthetic derivatives with a heptadecanoic fatty acid (C17:0) residue were used as internal standards for the quantification of N-acyl-fumonisins and ceramides (N-C17:0-FB1, N-C17:0-HFB1, and N-C17:0-ceramide). The sphingoid bases and their phosphate derivatives were quantified using synthetic derivatives with a C17-acyl-backbone: sphingosine (C17:1), sphingosine-1-phosphate (C17:1), sphinganine (C17:0), sphinganine-1-phosphate (C17:0) as internal standards. The standards were dissolved in methanol:chloroform (2:1, v/v) and then mixed with the tissue samples. The samples spiked with internal standard were kept at room temperature for 30 min before being processed further. The internal standard-spiked samples were first extracted with ethyl acetate, isopropanol, and water (60:30:10, v/v/v) and a second time using methanol, chloroform, and water (60:30:10, v/v/v). The extracts were combined, the solvents removed by evaporation, and the dried samples stored at−80 °C till analyzed.
For the analysis, the samples were reconstituted in a mixture of water, methanol, and tetrahydrofurane (60:24:16, v/v/v). The NAFB1 and NAHFB1 derivatives having the following fatty acyl chain lengths were quantified by HPLC-MS/MS: C16:0, C18:0, C20:0, C22:0, C24:0, C26:0. Furthermore, we also quantified the unsaturated derivatives C24:1 and C26:1. The results are given as the sum of all N-acyl derivatives of FB1 or HFB1. […]

[1] = Kidney, treatment FB1 0,5 mg/kg BW ip
[2] = Kidney, treatment FB1 1 mg/kg BW ip
[3] = Kidney, treatment FB1 2 mg/kg BW ip
[4] = Kidney, treatment HFB1 1 mg/kg BW ip
[5] = Liver, treatment FB1 0,5 mg/kg BW ip
[6] = Liver, treatment FB1 1 mg/kg BW ip
[7] = Liver, treatment FB1 2 mg/kg BW ip
[8] = Liver, treatment HFB1 1 mg/kg BW ip

| Compound | N-acyl-derivative in tissue sample, analysis a [2] | N-acyl-derivative in tissue sample, analysis b [2] | N-acyl-derivative in tissue sample, mean [2] | N-acyl-derivative in tissue sample, analysis a [3] | N-acyl-derivative in tissue sample, analysis b [3] | N-acyl-derivative in tissue sample, mean [3] | N-acyl-derivative in tissue sample, analysis a [4] | N-acyl-derivative in tissue sample, analysis b [4] | N-acyl-derivative in tissue sample, mean [4] | N-acyl-derivative in tissue sample, analysis a [5] | N-acyl-derivative in tissue sample, analysis b [5] | N-acyl-derivative in tissue sample, mean [5] | N-acyl-derivative in tissue sample, analysis a [6] | N-acyl-derivative in tissue sample, analysis b [6] | N-acyl-derivative in tissue sample, mean [6] | N-acyl-derivative in tissue sample, analysis a [7] | N-acyl-derivative in tissue sample, analysis b [7] | N-acyl-derivative in tissue sample, mean [7] | N-acyl-derivative in tissue sample, analysis a [8] | N-acyl-derivative in tissue sample, analysis b [8] | further results |
| --- | --- | --- | --- | --- | --- | --- | --- | --- | --- | --- | --- | --- | --- | --- | --- | --- | --- | --- | --- | --- | --- |
| CCCCCCCC/C=C\CCCCCCCCCCCCCC(=O)N[C@@H](C)[C@@H](O)C[C@H](O)CCCC[C@@H](O)C[C@H](C)C[C@H](O)[C@H](O)[C@H](C)CCCC [HFB1C24:1] | 0,4 | 0,0 | 0,2 | 0,1 | 0,0 | 0,0 | 7,9 | 10,8 | 9,3 | 0,0 | 0,0 | 0,0 | 0,0 | 0,1 | 0,1 | 0,4 | 0,0 | 0,2 | 156,0 | 140,5 | N-acyl-derivative in tissue sample, analysis a [1]: 0,0; N-acyl-derivative in tissue sample, analysis b [1]: 0,0; N-acyl-derivative in tissue sample, mean [1]: 0,0; N-acyl-derivative in tissue sample, mean [8]: 148,3 |
| CCCCCCCCCCCCCCCCCCCCCCCC(=O)NC(C)C(O)CC(O)CCCCC(O)CC(C)CC(OC(=O)CC(CC(=O)O)C(=O)O)C(OC(=O)CC(CC(=O)O)C(=O)O)C(C)CCCC (stereo not drawn) [FB1C24:0] | 3,0 | 2,4 | 2,7 | 5,0 | 4,4 | 4,7 | 0,0 | 0,0 | 0,0 | 11,7 | 12,3 | 12,0 | 2,1 | 7,3 | 4,7 | 9,0 | 17,6 | 13,3 | 0,0 | 0,0 | N-acyl-derivative in tissue sample, mean [8]: 0,0 |
| CCCCCCCCCCCCCCCCCCCC(=O)N[C@@H](C)[C@@H](O)C[C@H](O)CCCC[C@@H](O)C[C@H](C)C[C@H](O)[C@H](O)[C@H](C)CCCC [HFB1C20:0] | 0,0 | 0,1 | 0,1 | 0,0 | 0,0 | 0,0 | 3,1 | 0,6 | 1,8 | 0,0 | 0,2 | 0,1 | 0,2 | 0,1 | 0,2 | 0,0 | 0,0 | 0,0 | 8,9 | 13,1 | N-acyl-derivative in tissue sample, analysis a [1]: 0,0; N-acyl-derivative in tissue sample, analysis b [1]: 0,0; N-acyl-derivative in tissue sample, mean [1]: 0,0; N-acyl-derivative in tissue sample, mean [8]: 11,0 |
| CCCCCCCCCCCCCCCCCCCCCCCC(=O)N[C@@H](C)[C@@H](O)C[C@H](O)CCCC[C@@H](O)C[C@H](C)C[C@H](O)[C@H](O)[C@H](C)CCCC [HFB1C24:0] | 0,0 | 0,0 | 0,0 | 0,0 | 0,0 | 0,0 | 3,0 | 2,7 | 2,9 | 0,0 | 0,0 | 0,0 | 0,0 | 0,0 | 0,0 | 0,0 | 0,0 | 0,0 | 25,0 | 23,5 | N-acyl-derivative in tissue sample, mean [8]: 24,2 |
